The text below walks through data of ChEMBL document CHEMBL1201862, “PubChem BioAssay data set” (2004).

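Assay format: 96-well plates, 48-hour exposure. Abbreviation: GI50, concentration required for 50% inhibition of growth.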 Active and inactive are the calls of the source. No stated cut-off is given here; in the data, active = GI50 up to about 1.1 µM and inactive = higher. Non-standard residues stand in square brackets, D forms with d. Residues, ends and D or L forms follow the SMILES beside them. ξ: configuration not given here. Pen = CC(C)(S)[C@H](N)C(=O)O; ξL = CC(C)CC(N)C(=O)O

Among the test systems are DLD-1; RXF 631; LXFL 529; DMS-114; XF498; MDA-N; DU-145; T47D; BT-549.
Holding throughout (test): inhibition of tumour cell growth, NCI panel, 48 h

As for `C=CC1(c2ccccc2Cl)N/C(=C/OCC)CO1` (stereo unspecified), the GI50 is 33.5 µM (inactive) with DLD-1; > 100 µM (inactive) in the assay with RXF 631; > 100 µM (inactive) in the assay on LXFL 529; > 100 µM (inactive) in the assay with DMS-114; > 100 µM (inactive) in the assay with XF498.
With `O=C(NCCOC(=O)OCCNC(=O)NC1CCCCC1)NC1CCCCC1`, the GI50 in the assay on MDA-N, in the assay on DU-145 and in the assay with T47D was > 100 µM (inactive) throughout.
Turning to `CCOC(=O)C1=NN(c2ccc(Cl)cc2)C2=CC(C)=NN(C)C(=S)N21`, the GI50 is > 100 µM (inactive) in the assay on MDA-N, 79.3 µM (inactive) in the assay with DU-145 and 23.9 µM (inactive) in the assay on T47D.
As for `O=C(OCc1ccccc1)OOC(=O)OCc1ccccc1`, the GI50 with DLD-1, in the assay with LXFL 529 and in the assay with DMS-114 was > 100 µM (inactive) in each case.
For the molecule `CSCC[C@H](NC(=O)C(CC(C)C)NC(=O)[C@H](Cc1c[nH]cn1)NC(=O)CNC(=O)[C@@H](NC(=O)[C@@H](C)NC(=O)[C@H](Cc1c[nH]c2ccccc12)NC(=O)[C@H](CCC(N)=O)NC(=O)[C@@H](N)CC(N)=O)C(C)(C)SC)C(N)=O` (stereo partly specified) (H-NQW[dA][Pen](Me)GH[ξL]M-NH2), the GI50 in the assay on DLD-1, in the assay with DMS-114 and in the assay with XF498 was > 100 µM (inactive) each time.
Regarding `C/C(=N\OCC(O)CNCCSCc1ccccc1)c1ccccc1Cl` (stereo unspecified), the GI50 with MDA-N was 19.6 µM (inactive); in the assay on DU-145, 23.3 µM (inactive); with T47D it was 22.6 µM (inactive).
`CCCCCCSc1nc(N)nc2nc[nH]c12`: the GI50 is 33.7 µM (inactive) in the assay with DLD-1 and 32.5 µM (inactive) in the assay on XF498.
Consider `CC[C@H]1CN2CCc3cc(OC)c(OC)cc3[C@@H]2C[C@@H]1C[C@H]1NCCc2cc(O)c(OC)cc21`, for which the GI50 is 0.0277 µM (active) in the assay on DLD-1 and 0.025 µM (active) with DMS-114.
As for `CC(=C(c1ccccc1)c1ccccc1)N1C(=O)CC(=O)N1C`, the GI50 in the assay on BT-549 is 34.8 µM (inactive); in the assay with MDA-N, 48.3 µM (inactive); with DU-145 it was > 100 µM (inactive); with T47D, 78.2 µM (inactive).
Consider `C[n+]1[se]c2ccccc2c1Cl`, for which the GI50 in the assay on DLD-1 was 25.7 µM (inactive); in the assay on RXF 631, 25.1 µM (inactive); in the assay with LXFL 529, 28.1 µM (inactive); in the assay with DMS-114, 35.3 µM (inactive); in the assay with XF498, 37.2 µM (inactive).
Turning to `CN1C(=O)CC(=O)N1/C(=C/c1ccccc1)c1ccccc1`, the GI50 in the assay on BT-549, with MDA-N, in the assay on DU-145 and with T47D was > 100 µM (inactive) each time.
With `COc1ccc(/C(Cl)=C(\C=O)c2ccc(F)cc2)cc1`, the GI50 with DLD-1 is 8.17 µM (inactive); in the assay with RXF 631, 19.8 µM (inactive); with LXFL 529, 6.27 µM (inactive); with DMS-114 it was 7.55 µM (inactive).
Turning to `C=C1C[C@@H](O)C[C@@]2(C)C[C@@H]3OC(=O)C(=C)[C@@H]3C[C@H]12`, the GI50 in the assay on DLD-1 is 3.85 µM (inactive); with DMS-114, 8.73 µM (inactive); with XF498, 0.678 µM (active).
Turning to `Cc1ccc(C(=O)Cc2nc3c([nH]c2=O)c(C)nn3-c2ccccc2)c(C)c1`, the GI50 is > 10 µM (inactive) in the assay on BT-549, > 10 µM (inactive) in the assay with MDA-N, > 10 µM (inactive) in the assay with DU-145 and 5.45 µM (inactive) in the assay on T47D.
With `Cc1cc(=O)n2nc(CCl)sc2n1`, the GI50 with BT-549 is 3.58 µM (inactive); with MDA-N it was 14 µM (inactive); in the assay with DU-145 it was 18.1 µM (inactive); in the assay on T47D, 15.3 µM (inactive).
As for `C=C(CS(=O)(=O)c1ccccc1)[P+](c1ccccc1)(c1ccccc1)c1ccccc1`, the figures for the GI50 in the assay on DLD-1, in the assay with DMS-114 and in the assay on XF498 were 21.4 µM (inactive), 21.6 µM (inactive) and 15 µM (inactive), respectively.
Take `CCOC(=O)C(=O)NC12CC3CC(CC(C3)C1)C2`: the GI50 in the assay on DLD-1, with RXF 631, in the assay with LXFL 529, with DMS-114 and in the assay with XF498 was > 100 µM (inactive) in each case.
As to `COc1ccc2c(c1)c1c(n2CCN(C)C)-c2ccccc2CC1`, the GI50 with BT-549 was 16.9 µM (inactive); with MDA-N it was 16 µM (inactive); in the assay on DU-145 it was 15.9 µM (inactive); in the assay on T47D, 14.5 µM (inactive).
Take `CN(C)CCNC(=O)c1cc(Cl)cc2cc3ccccc3nc12`: the values for the GI50 in the assay with DLD-1, in the assay on DMS-114 and in the assay with XF498 were 0.652 µM (active), 0.792 µM (active) and 0.966 µM (active), respectively.
The like results for `CN(C)CCOc1cc2c(c3ccccc13)-c1ccccc1C2=O` were, in that order, 1.15 µM (inactive), 1.09 µM (active) and 1.6 µM (inactive).
In the case of `CC12CCC(=O)[C@@]1(C)CCCC2O` (stereo partly specified), the GI50 with BT-549, in the assay on MDA-N, in the assay on DU-145 and in the assay with T47D was > 100 µM (inactive) in each case.
As to `CCN(CC)CCCNc1nc(=O)[nH]c(C)c1C(=O)Nc1ccc2c(c1)c1ccccc1n2CC`, the GI50 in the assay with MDA-N, in the assay with DU-145 and with T47D was > 100 µM (inactive) in each case.
Take `Cc1ccnc2nc(N)ccc12`: the GI50 with BT-549, with MDA-N, in the assay on DU-145 and in the assay on T47D was > 100 µM (inactive) in each case.
For the molecule `CN(C1=NCCO1)c1cccc2ccccc12`, the GI50 with MDA-N, with DU-145 and in the assay with T47D was > 10 µM (inactive) in each case.
With `N/N=C(\C(=O)Nc1c(Cl)cc([N+](=O)[O-])cc1Cl)C(c1cnc2ccc([N+](=O)[O-])cc2n1)[N+](=O)[O-]` (stereo unspecified), the GI50 with DLD-1 was > 100 µM (inactive); in the assay with DMS-114, 36.3 µM (inactive); in the assay on XF498 it was > 100 µM (inactive).
For the molecule `COc1c2c(cc3c(CCc4ccccc4)cc(=O)oc13)CCC(C)(C)O2`, the GI50 with DLD-1, in the assay on LXFL 529 and in the assay on DMS-114 was > 100 µM (inactive) throughout.
For `Cc1cc(O)c2c(c1O)C(=O)C13C(=C(O)C4C(O)C1C1C(O)C3C(O)=C3C(=O)c5c(O)cc(C)c(O)c5C(=O)C341)C2=O` (stereo unspecified), the GI50 in the assay with DLD-1 is 0.0455 µM (active); with DMS-114 it was 0.0146 µM (active); in the assay on XF498 it was 0.134 µM (active).
The matching figures for `C[S+](C)CC1OC(n2cnc3c(N)ncnc32)C(O)C1O` (stereo unspecified): > 225 µM (inactive), > 225 µM (inactive) and > 225 µM (inactive).
Take `O=C1C=C/C(=C/[C@H]2SSC=C[C@]23C=CC(=O)C3)C1`: the GI50 in the assay with BT-549 is 18.9 µM (inactive); in the assay on MDA-N, 17.5 µM (inactive); in the assay with DU-145, 20.2 µM (inactive); in the assay with T47D it was 36.1 µM (inactive).
In the case of `CC(=O)OCC1OC(Nc2ncc(-c3ccc(C)cc3)s2)C(OC(C)=O)C(OC(C)=O)C1OC(C)=O` (stereo unspecified), the GI50 in the assay with DLD-1 was 54.1 µM (inactive); in the assay with DMS-114, 35.6 µM (inactive).
With `CCOC(=O)CNC(=O)NC12CC3CC(CC(C3)C1)C2`, the GI50 in the assay on DLD-1 was 65.8 µM (inactive); in the assay on DMS-114, 179 µM (inactive); in the assay with XF498 it was 22.1 µM (inactive).
Turning to `COc1ccc(/C=C2\C[C@H]3[C@@H]4CCC5=C/C(=N/O)CC[C@]5(C)[C@H]4CC[C@]3(C)\C2=N\O)cc1OC`, the GI50 was 57.8 µM (inactive) in the assay on BT-549, 11.6 µM (inactive) in the assay with MDA-N, 63.4 µM (inactive) with DU-145 and 7.66 µM (inactive) with T47D.
Turning to `COC(=O)C(Cc1ccc(N(C)C)cc1)(NC(=O)c1ccccc1)P(=O)(OC)OC` (stereo unspecified), the GI50 in the assay with LXFL 529, in the assay on DMS-114 and in the assay with XF498 was > 100 µM (inactive) throughout.
Regarding `O=S1(=O)CC#CC[C@@H](CO)[C@@H](CO)CC#CC1`, the figures for the GI50 with DLD-1, in the assay on LXFL 529 and with XF498 were > 100 µM (inactive), 71.3 µM (inactive) and > 100 µM (inactive), respectively.
For `O=C(O)C(F)(F)C(F)(F)C(F)(F)C(F)(F)C(F)(F)C(F)(F)C(F)(F)C(F)(F)F`, the GI50 in the assay on BT-549 is 49.1 µM (inactive); in the assay with MDA-N, 40.4 µM (inactive); in the assay on DU-145, 47.6 µM (inactive); in the assay with T47D it was 57.3 µM (inactive).
Regarding `c1ccc2c(c1)SCCc1cn[nH]c1-2`, the GI50 in the assay with DLD-1, in the assay on DMS-114 and in the assay on XF498 was > 100 µM (inactive) each time.
On to `CC1(C)CN=C(Nc2ccc(F)cc2)S1`, for which the GI50 in the assay with BT-549, in the assay with MDA-N, in the assay with DU-145 and with T47D was > 100 µM (inactive) throughout.
Regarding `CSc1ncc2c(n1)-c1ccccc1OC2NC(C)(C)C` (stereo unspecified), the values for the GI50 with BT-549, in the assay on DU-145 and in the assay with T47D were 44.9 µM (inactive), > 100 µM (inactive) and 55 µM (inactive), respectively.
As for `COc1cccc(N2C(=O)CSC2c2cccc(Oc3ccccc3)c2)c1` (stereo unspecified), the GI50 in the assay with BT-549 was 12.3 µM (inactive); in the assay with MDA-N, 1.89 µM (inactive); in the assay on DU-145 it was 20.4 µM (inactive); in the assay with T47D, 9.04 µM (inactive).
As to `CN(C)C(=O)C(F)(F)C(c1ccc(Br)cc1)C1C(=O)N(C)C(=O)N(C)C1=O` (stereo unspecified), the GI50 in the assay on BT-549, in the assay on DU-145 and in the assay on T47D was > 100 µM (inactive) in each case.
As for `COC(=O)C(/C(=N/NC(N)=S)C(=O)Nc1ccccc1[N+](=O)[O-])c1cnc2ccccc2n1` (stereo unspecified), the GI50 in the assay on DLD-1, with RXF 631, in the assay on LXFL 529, in the assay with DMS-114 and in the assay on XF498 was > 100 µM (inactive) throughout.
Consider `O=C(O)C(O)Cc1ccccn1` (stereo unspecified), for which the GI50 with BT-549, with DU-145 and in the assay on T47D was > 100 µM (inactive) in each case.
`Cc1ccc(S(=O)(=O)NC(=O)OC23COCN2COC3)cc1`: the GI50 with BT-549 is > 100 µM (inactive); in the assay on MDA-N, > 100 µM (inactive); in the assay with DU-145 it was > 100 µM (inactive); with T47D it was 69.5 µM (inactive).
On to `C[Si](C)(C)/C(I)=C/CO`, for which the GI50 in the assay with RXF 631 was 26.4 µM (inactive); in the assay on LXFL 529, 34.6 µM (inactive); in the assay with XF498, 13.6 µM (inactive).
